According to paper PMC7956587, “Molecular Docking Studies and Biological Evaluation of Berberine–Benzothiazole Derivatives as an Anti-Influenza Agent via Blocking of Neuraminidase” (International Journal of Molecular Sciences, 2021):
Where two headings read alike, the source gives them in different places.

Legend:
[1] = test system: influenza A virus A/PR/8/34 (H1N1); assay: In vitro antiviral bioassay (CPE reduction, SRB) in MDCK cells; type: cell-based; conditions: for IC50: Influenza A virus, MDCK, 48 h; for TI A/PR/8/34 (H1N1): Therapeutic index, TI = CC50/IC50
[2] = test system: influenza A virus A/Vic/3/75 (H3N2); assay: as above; type: cell-based; conditions: for IC50: Influenza A virus, H3N2, MDCK, 48 h; for TI A/VIC/3/75 (H3N2): Therapeutic index, TI = CC50/IC50
[3] = test system: influenza B virus B/Lee/40; assay: as above; type: cell-based; conditions: for IC50: Influenza B virus; for TI B/LEE/40: Therapeutic index, TI = CC50/IC50
[4] = test system: influenza B virus B/Maryland/1/59; assay: as above; type: cell-based; conditions: for IC50: Influenza B virus, read-out: IC50 B/MARYLAND/1/59; for TI B/MARYLAND/1/59: Therapeutic index, TI = CC50/IC50
[5] = Cytotoxicity on MDCK cells, SRB method; conditions: dog
[6] = target: influenza virus neuraminidase (Influenza A virus, UniProt P03468); assay: Viral neuraminidase inhibition assay (NA-Star kit); type: biochemical, influenza A/PR/8/34 virus; conditions: for NA inhibition activity (in words): compared with oseltamivir, Figure 1; for activity at 0.1 µg/mL: at 0.1 μg/mL; for activity at 0.1 µg/mL / activity at 1 µg/mL / activity at 10 µg/mL: (Treatment/Virus) × 100, remaining activity; for activity at 1 µg/mL: at 1 μg/mL; for activity at 10 µg/mL: at 10 μg/mL
influenza virus neuraminidase, sequence (P03468 whole entry, looked up): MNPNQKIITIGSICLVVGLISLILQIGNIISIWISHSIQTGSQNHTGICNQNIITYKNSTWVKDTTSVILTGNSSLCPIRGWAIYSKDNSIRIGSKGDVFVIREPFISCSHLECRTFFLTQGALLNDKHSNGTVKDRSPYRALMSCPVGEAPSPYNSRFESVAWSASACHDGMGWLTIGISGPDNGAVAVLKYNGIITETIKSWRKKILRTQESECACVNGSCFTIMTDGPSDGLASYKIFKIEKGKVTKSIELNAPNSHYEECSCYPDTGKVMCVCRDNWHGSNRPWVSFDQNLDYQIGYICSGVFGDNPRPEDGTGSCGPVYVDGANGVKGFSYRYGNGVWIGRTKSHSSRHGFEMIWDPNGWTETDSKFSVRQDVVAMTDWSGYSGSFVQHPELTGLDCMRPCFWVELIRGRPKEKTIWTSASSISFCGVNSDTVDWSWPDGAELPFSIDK

[7] = test system: MDCK cells; conditions: dog, 48 h
[8] = in vitro; conditions: dog
[9] = MDCK cells, 50 TCID50, 48 h, mean ± S.D., triplicate

SMILES | IC50 [1] | TI A/PR/8/34 (H1N1) [1] | IC50 [2] | TI A/VIC/3/75 (H3N2) [2] | IC50 [3, 9] | TI B/LEE/40 [3] | IC50 ([4]; MDCK, 48 h) | TI B/MARYLAND/1/59 [4] | CC50 at 48 h [5] | IC50 [4, 9] | NA inhibition activity (in words) [6] | CC50 [7] | CC50 at 48 h [8] | activity at 0.1 µg/mL [6] | activity at 1 µg/mL [6] | activity at 10 µg/mL [6] | IC50 A/PR/8/34 (H1N1) [1] | IC50 A/VIC/3/75 (H3N2) [2] | IC50 B/LEE/40 [3, 9] | IC50 B/MARYLAND/1/59 [4, 9]
COc1ccc2cc3[n+](cc2c1OC)CCc1cc2c(cc1-3)OCO2 [BERBERINE, Berberine] | 36.1 ± 1.57 µg/mL | 1.808 | 41.6 ± 2.04 µg/mL | 1.571 | 60.8 ± 1.86 µg/mL | 1.07 | 54.6 ± 1.45 µg/mL | 1.196 | 65.3 ± 1.92 µg/mL |  |  |  |  |  |  |  |  |  |  | 
COc1ccc2cc3[n+](cc2c1OCCCCCNc1nc2ccc(C)cc2s1)CCc1cc2c(cc1-3)OCO2 [BBD 4] | 37.3 ± 0.669 µg/mL | 8.655 | 55 ± 0.87 µg/mL | 5.862 | 43.2 ± 0.86 µg/mL | 7.406 |  | 7.762 |  | 41.6 ± 0.67 µg/mL | moderate NA inhibition activity | 322.6 ± 2.543 µg/mL | > 100 µg/mL |  |  |  |  |  |  | 
COc1ccc2cc3[n+](cc2c1OCCCCCNc1nc2ccc(Cl)cc2s1)CCc1cc2c(cc1-3)OCO2 [BBD 7] | 24.3 ± 0.419 µg/mL | 19.08 | 38.8 ± 2.51 µg/mL | 11.94 | 81.4 ± 3.01 µg/mL |  |  | 5.259 |  | 88.1 ± 1.16 µg/mL |  | 463.5 ± 3.386 µg/mL | > 100 µg/mL | 37.4% | 32.1% | 14.5% |  |  |  | 
COc1ccc2nc(NCCCCCOc3c(OC)ccc4cc5[n+](cc34)CCc3cc4c(cc3-5)OCO4)sc2c1 [BBD 5] | 39.54 ± 0.326 µg/mL | 7.749 | 57.3 ± 2.13 µg/mL | 5.343 | 36.9 ± 1.52 µg/mL | 8.294 |  | 6.921 |  | 44.3 ± 2.06 µg/mL | moderate NA inhibition activity | 306.4 ± 3.612 µg/mL | > 100 µg/mL |  |  |  |  |  |  | 
COc1ccc2cc3[n+](cc2c1OCCCCCNNc1nc2ccccc2s1)CCc1cc2c(cc1-3)OCO2 [BBD 14] | 40.3 ± 0.725 µg/mL | 7.543 | 56.3 ± 2.06 µg/mL | 5.403 | 70.3 ± 2.24 µg/mL | 4.327 |  | 4.143 |  | 73.4 ± 2.17 µg/mL |  | 304.3 ± 1.261 µg/mL | > 100 µg/mL |  |  |  |  |  |  | 
COc1ccc2cc3[n+](cc2c1OCCCCCNc1nc2ccc(C#N)cc2s1)CCc1cc2c(cc1-3)OCO2 [BBD 13] |  |  |  |  |  |  |  |  |  |  |  |  | 45.1 ± 0.864 µg/mL |  |  |  | did not show any activity | did not show any activity | did not show any activity | did not show any activity
COc1ccc2cc3[n+](cc2c1OCCCCCNc1nc2ccccc2s1)CCc1cc2c(cc1-3)OCO2 [BBD 1] | 25.2 ± 0.154 µg/mL | 17.32 | 45.1 ± 1.75 µg/mL | 9.672 | 55.5 ± 3.77 µg/mL | 7.874 |  | 7.924 |  | 55.1 ± 2.65 µg/mL |  | 436.7 ± 2.635 µg/mL | > 100 µg/mL | 40.3% | 30.4% | 15.6% |  |  |  | 
COc1ccc2cc3[n+](cc2c1OCCCCCNc1nc2ccc(C(F)(F)F)cc2s1)CCc1cc2c(cc1-3)OCO2 [BBD 12] | 28.7 ± 0.514 µg/mL | 10.52 | 44.6 ± 1.65 µg/mL | 6.784 | 67.7 ± 1.52 µg/mL | 4.468 |  | 4.565 |  | 66.2 ± 1.82 µg/mL |  | 302.3 ± 2.446 µg/mL | > 100 µg/mL |  |  |  |  |  |  | 
COc1ccc2cc3[n+](cc2c1OCCCCCNc1nc2ccc(F)cc2s1)CCc1cc2c(cc1-3)OCO2 [BBD 10] | 30.5 ± 0.761 µg/mL | 10.18 | 49.9 ± 1.31 µg/mL | 6.228 | 64.6 ± 1.24 µg/mL | 4.812 |  | 4.100 |  | 75.7 ± 2.06 µg/mL |  | 310.6 ± 1.629 µg/mL | > 100 µg/mL |  |  |  |  |  |  | 
COc1ccc2cc3[n+](cc2c1OCCCCCNc1nc2ccc(C(=O)O)cc2s1)CCc1cc2c(cc1-3)OCO2 [BBD 3] | 35.9 ± 0.659 µg/mL | 10.65 | 60.7 ± 1.06 µg/mL | 6.303 | 53.9 ± 1.36 µg/mL | 7.105 |  | 6.784 |  | 56.4 ± 1.06 µg/mL |  | 382.9 ± 2.964 µg/mL | > 100 µg/mL |  |  |  |  |  |  | 
CCOC(=O)C1=C[C@@H](OC(CC)CC)[C@H](NC(C)=O)[C@@H](N)C1 [OSELTAMIVIR, Oseltamivir phosphate, reference compound] | 11.6 ± 1.43 µg/mL | 17.75 | 22.1 ± 1.07 µg/mL | 9.27 | 55.9 ± 1.13 µg/mL | 3.67 | 44.2 ± 1.83 µg/mL | 4.64 | > 100 µg/mL |  |  |  |  | 39.1% | 29.1% | 18.3% |  |  |  | 
COc1ccc2cc3[n+](cc2c1OCCCCCNc1nc2c(F)cc(F)cc2s1)CCc1cc2c(cc1-3)OCO2 [BBD 11] | 27.2 ± 0.394 µg/mL | 17.19 | 48.4 ± 2.2 µg/mL | 9.655 | 85.1 ± 3.74 µg/mL | 5.494 |  | 4.75 |  | 98.3 ± 2.21 µg/mL |  | 467.7 ± 2.647 µg/mL | > 100 µg/mL | 40.8% | 33.2% | 18.4% |  |  |  | 
CCOc1ccc2nc(NCCCCCOc3c(OC)ccc4cc5[n+](cc34)CCc3cc4c(cc3-5)OCO4)sc2c1 [BBD 6] | 42.8 ± 0.478 µg/mL | 5.176 | 60.4 ± 1.35 µg/mL | 3.663 | 38.8 ± 2.08 µg/mL | 5.712 |  | 6.003 |  | 36.9 ± 2.15 µg/mL |  | 221.4 ± 1.180 µg/mL | > 100 µg/mL |  |  |  |  |  |  | 
COc1ccc2cc3[n+](cc2c1OCCCCCNc1nc2ccc(Br)cc2s1)CCc1cc2c(cc1-3)OCO2 [BBD 8] | 68.02 ± 0.67 µg/mL | 4.835 | 70.7 ± 0.94 µg/mL | 4.65 | 74.8 ± 1.83 µg/mL | 4.395 |  | 4.052 |  | 81.2 ± 0.91 µg/mL |  | 328.9 ± 1.065 µg/mL | > 100 µg/mL |  |  |  |  |  |  | 
COc1ccc2cc3[n+](cc2c1OCCCCCNc1nc2ccc(I)cc2s1)CCc1cc2c(cc1-3)OCO2 [BBD 9] | 54.5 ± 1.75 µg/mL | 5.547 | 54.2 ± 2.09 µg/mL | 5.585 | 69.8 ± 2.57 µg/mL | 4.331 |  | 3.851 |  | 78.5 ± 2.31 µg/mL |  | 302.5 ± 1.771 µg/mL | > 100 µg/mL |  |  |  |  |  |  | 
COc1ccc2cc3[n+](cc2c1OCCCCCNc1nc2ccc([N+](=O)[O-])cc2s1)CCc1cc2c(cc1-3)OCO2 [BBD 2] | 30.9 ± 0.619 µg/mL | 11.01 | 52.2 ± 2.07 µg/mL | 6.525 | 61.7 ± 1.65 µg/mL | 5.516 |  | 5.212 |  | 65.3 ± 1.88 µg/mL |  | 340.5 ± 1.180 µg/mL | > 100 µg/mL |  |  |  |  |  |  | 
